# Assay results as given in ChEMBL document CHEMBL3352133, “Antimalarial chemotherapy: orally curative artemisinin-derived trioxane dimer esters” (Bioorg Med Chem Lett, 2015).
# What was measured:
# [1] = tested on: Plasmodium berghei; test: Antimalarial activity Plasmodium berghei ANKA infected in C57BL/6J mouse assessed as suppression of parasitemia at 6 mg/kg, po administered as single dose combined with 18 mg/kg mefloquine hydrochloride measured on day 3 after innfection; format: functional
# [2] = tested on: Plasmodium berghei; test: Antimalarial activity Plasmodium berghei ANKA infected in C57BL/6J mouse assessed as mouse survival at 6 mg/kg, po administered as single dose combined with 18 mg/kg mefloquine hydrochloride; format: functional
# [3] = Lipophilicity, logP of the compound; format: physicochemical; details: octanol/water
# [4] = tested on: Plasmodium; test: Antimalarial activity Plasmodium; format: functional
# [5] = Stability in pH 2 in acetonitrile and water at 37 degC; format: physicochemical; details: acetonitrile and water at pH 2, pH 2; read-out: Stability (converted)
SMILES,Activity [1],Survival [2],logP ([3]; read-out: logP),IC50 [4],logP [3],half-life [5]
C[C@H]1[C@@H](CC(CO)C[C@H]2O[C@@H]3O[C@@]4(C)CC[C@H]5[C@H](C)CC[C@@H]([C@H]2C)[C@@]35OO4)O[C@@H]2O[C@@]3(C)CC[C@H]4[C@H](C)CC[C@@H]1[C@@]24OO3 (stereo not given in full),>99.9%,26 days,–,–,–,–
C[C@H]1[C@@H](CC(COC(=O)c2ccncc2)C[C@H]2O[C@@H]3O[C@@]4(C)CC[C@H]5[C@H](C)CC[C@@H]([C@H]2C)[C@@]35OO4)O[C@@H]2O[C@@]3(C)CC[C@H]4[C@H](C)CC[C@@H]1[C@@]24OO3,>99.9%,24.3 days,7.8,1.7 nM,–,–
C[C@H]1[C@@H](CC(COC(=O)c2ccnc(Cl)c2Cl)C[C@H]2O[C@@H]3O[C@@]4(C)CC[C@H]5[C@H](C)CC[C@@H]([C@H]2C)[C@@]35OO4)O[C@@H]2O[C@@]3(C)CC[C@H]4[C@H](C)CC[C@@H]1[C@@]24OO3,>99.9%,26 days,–,–,9.2,–
C[C@H]1[C@@H](CC(COC(=O)c2cc(Cl)nc(Cl)c2)C[C@H]2O[C@@H]3O[C@@]4(C)CC[C@H]5[C@H](C)CC[C@@H]([C@H]2C)[C@@]35OO4)O[C@@H]2O[C@@]3(C)CC[C@H]4[C@H](C)CC[C@@H]1[C@@]24OO3,>99.9%,25.8 days,–,–,9.5,–
Cc1cc(C(=O)OCC(C[C@H]2O[C@@H]3O[C@@]4(C)CC[C@H]5[C@H](C)CC[C@@H]([C@H]2C)[C@@]35OO4)C[C@H]2O[C@@H]3O[C@@]4(C)CC[C@H]5[C@H](C)CC[C@@H]([C@H]2C)[C@@]35OO4)cc(Cl)n1,>99.9%,28.5 days,–,–,9.5,–
Cc1cc(C(=O)OCC(C[C@H]2O[C@@H]3O[C@@]4(C)CC[C@H]5[C@H](C)CC[C@@H]([C@H]2C)[C@@]35OO4)C[C@H]2O[C@@H]3O[C@@]4(C)CC[C@H]5[C@H](C)CC[C@@H]([C@H]2C)[C@@]35OO4)cc(C)n1,>99.9%,25.8 days,8.1,–,–,–
C[C@H]1[C@@H](CC(COC(=O)c2cc(F)nc(F)c2)C[C@H]2O[C@@H]3O[C@@]4(C)CC[C@H]5[C@H](C)CC[C@@H]([C@H]2C)[C@@]35OO4)O[C@@H]2O[C@@]3(C)CC[C@H]4[C@H](C)CC[C@@H]1[C@@]24OO3,>99.9%,23.5 days,8.9,–,–,–
C[C@H]1[C@@H](CC(COC(=O)c2cc(F)cc(F)c2)C[C@H]2O[C@@H]3O[C@@]4(C)CC[C@H]5[C@H](C)CC[C@@H]([C@H]2C)[C@@]35OO4)O[C@@H]2O[C@@]3(C)CC[C@H]4[C@H](C)CC[C@@H]1[C@@]24OO3,>99.9%,29 days,–,–,9.3,–
C[C@H]1[C@@H](CC(COC(=O)c2cc(Cl)cc(Cl)c2)C[C@H]2O[C@@H]3O[C@@]4(C)CC[C@H]5[C@H](C)CC[C@@H]([C@H]2C)[C@@]35OO4)O[C@@H]2O[C@@]3(C)CC[C@H]4[C@H](C)CC[C@@H]1[C@@]24OO3,>99.9%,30 days,–,–,10.2,96 h
C[C@H]1[C@@H](CC(COC(=O)c2ccc(Cl)nc2Cl)C[C@H]2O[C@@H]3O[C@@]4(C)CC[C@H]5[C@H](C)CC[C@@H]([C@H]2C)[C@@]35OO4)O[C@@H]2O[C@@]3(C)CC[C@H]4[C@H](C)CC[C@@H]1[C@@]24OO3,>99.9%,30 days,–,–,9.5,96 h
CO[C@H]1O[C@@H]2O[C@@]3(C)CC[C@H]4[C@H](C)CC[C@@H]([C@H]1C)[C@@]24OO3 [ARTEMETHER],>99.9%,20.8 days,–,–,–,–
C[C@@H]1CC[C@H]2[C@@H](C)C(=O)O[C@@H]3O[C@@]4(C)CC[C@@H]1[C@]32OO4 [ARTEMISININ],–,–,–,9 nM,–,–
